Data published in publication PMC13596996 (Cell, 2026).

Test system: GABAA receptor
Experiment: whole-cell voltage-clamp, dose-response, blocked by gabazine
Parameters: species or system Mus musculus

With [H]/N=C(/N)NCC(=O)O [GAA, guanidinoacetate] the EC50 was 134 µM.
